Laboratory results from patent US12268770B2, “Use of cell membrane-bound signaling factors” (AiVita Biomedical, Inc., priority 2017, dated 2025).

Tested on: plucked human hair follicles
Assay: ex vivo culture of plucked human hair
Type: cell-based
Details: 0.25 mM; 5 days of exposure; no other growth factors
Description: Plucked human hair with evident presence of the bulb area were immersed immediately after collection in cell growth media. Some of the hair samples were exposed to with lipid-modified protein/MBCD complexes (loaded MBCD) from embryonic stem cell culture as described in Example 2 (referred to as active ingredient), or unloaded MBCD as control, at the same concentration of 0.25 mM of the cyclodextrin component. No other growth factors (e.g., EGF, KGF, etc) were used in the hair follicle cultures.

Substance: methyl-β-cyclodextrin [unloaded MBCD]
- status of follicles in culture: underwent senescence and detached from the substrate
